# Results published in ChEMBL document CHEMBL1153874, “Synthesis and biological evaluation of cytotoxic properties of stilbene-based resveratrol analogs” (Eur J Med Chem, 2009).
# Tests used:
# [1] = Antimitotic activity in Lytechinus variegatus embryo assessed as inhibition of blastula formation at 18.4 uM relative to control; format: functional
# [2] = Antimitotic activity in Lytechinus variegatus embryo assessed as inhibition of blastula formation at 184 uM relative to control; format: functional
# CCRF-CEM = experiment: Cytotoxicity against human CEM cells after 72 hrs by MTT assay; format: cell-based
# K562 = experiment: Cytotoxicity against human K562 cells after 72 hrs by MTT assay; format: functional, cell-based; conditions: K562, 72 h
# Lytechinus variegatus [3] = experiment: Antimitotic activity in Lytechinus variegatus embryo assessed as inhibition of first cleavage at 18.4 uM relative to control; format: functional
# Lytechinus variegatus [4] = experiment: Antimitotic activity in Lytechinus variegatus embryo assessed as inhibition of first cleavage at 184 uM relative to control; format: functional
# Lytechinus variegatus [5] = experiment: Antimitotic activity in Lytechinus variegatus embryo assessed as inhibition of third cleavage at 18.4 uM relative to control; format: functional
# Lytechinus variegatus [6] = experiment: Antimitotic activity in Lytechinus variegatus embryo assessed as inhibition of third cleavage at 184 uM relative to control; format: functional
# PC-3 = experiment: cells; conditions: Homo sapiens, PC-3, 72 h
# Description: Cytotoxicity against human PC3 cells after 72 hrs by MTT assay
# Lytechinus variegatus [7] = experiment: Antimitotic activity in Lytechinus variegatus embryo assessed as inhibition of third cleavage at 370 uM relative to control; format: functional
# [8] = Antimitotic activity in Lytechinus variegatus embryo assessed as inhibition of blastula formation at 37 uM relative to control; format: functional
# [9] = Antimitotic activity in Lytechinus variegatus embryo assessed as inhibition of blastula formation at 370 uM relative to control; format: functional
# [10] = Toxicity in mouse erythrocytes assessed as hemolysis at 1.5 to 200 ug/mL after 30 min by spectrophotometry; format: cell-based; conditions: erythrocyte, 0.5 h
# B16 = experiment: Cytotoxicity against mouse B16 cells after 72 hrs by MTT assay; format: functional, cell-based; conditions: B16, 72 h
# HCT-8 = experiment: Cytotoxicity against human HCT8 cells after 72 hrs by MTT assay; format: functional, cell-based; conditions: HCT-8, 72 h
# HL-60 = experiment: Cytotoxicity against human HL60 cells after 72 hrs by MTT assay; format: functional, cell-based; conditions: HL-60, 72 h
# Lytechinus variegatus [11] = experiment: Antimitotic activity in Lytechinus variegatus embryo assessed as inhibition of first cleavage at 37 uM relative to control; format: functional
# Lytechinus variegatus [12] = experiment: Antimitotic activity in Lytechinus variegatus embryo assessed as inhibition of first cleavage at 370 uM relative to control; format: functional
# Lytechinus variegatus [13] = experiment: Antimitotic activity in Lytechinus variegatus embryo assessed as inhibition of third cleavage at 37 uM relative to control; format: functional
# MDA-MB-435 = experiment: cells; conditions: Homo sapiens, MDA-MB-435, 72 h
# Description: Cytotoxicity against human MDA-MB-435 cells after 72 hrs by MTT assay
# [14] = Antimitotic activity in Lytechinus variegatus embryo assessed as inhibition of blastula formation at 35.2 uM relative to control; format: functional
# [15] = Antimitotic activity in Lytechinus variegatus embryo assessed as inhibition of blastula formation at 352 uM relative to control; format: functional
# Lytechinus variegatus [16] = experiment: Antimitotic activity in Lytechinus variegatus embryo assessed as inhibition of first cleavage at 352 uM relative to control; format: functional
# Lytechinus variegatus [17] = experiment: Antimitotic activity in Lytechinus variegatus embryo assessed as inhibition of first cleavage at 35.2 uM relative to control; format: functional
# Lytechinus variegatus [18] = experiment: Antimitotic activity in Lytechinus variegatus embryo assessed as inhibition of third cleavage at 35.2 uM relative to control; format: functional
# Lytechinus variegatus [19] = experiment: Antimitotic activity in Lytechinus variegatus embryo assessed as inhibition of third cleavage at 352 uM relative to control; format: functional
# [20] = Antimitotic activity in Lytechinus variegatus embryo assessed as inhibition of blastula formation at 32 uM relative to control; format: functional
# [21] = Antimitotic activity in Lytechinus variegatus embryo assessed as inhibition of blastula formation at 320 uM relative to control; format: functional
# Lytechinus variegatus [22] = experiment: Antimitotic activity in Lytechinus variegatus embryo assessed as inhibition of first cleavage at 32 uM relative to control; format: functional
# Lytechinus variegatus [23] = experiment: Antimitotic activity in Lytechinus variegatus embryo assessed as inhibition of first cleavage at 320 uM relative to control; format: functional
# Lytechinus variegatus [24] = experiment: Antimitotic activity in Lytechinus variegatus embryo assessed as inhibition of third cleavage at 32 uM relative to control; format: functional
# Lytechinus variegatus [25] = experiment: Antimitotic activity in Lytechinus variegatus embryo assessed as inhibition of third cleavage at 320 uM relative to control; format: functional
# [26] = Antimitotic activity in Lytechinus variegatus embryo assessed as inhibition of blastula formation at 41.7 uM relative to control; format: functional
# [27] = Antimitotic activity in Lytechinus variegatus embryo assessed as inhibition of blastula formation at 417 uM relative to control; format: functional
# Lytechinus variegatus [28] = experiment: Antimitotic activity in Lytechinus variegatus embryo assessed as inhibition of first cleavage at 41.7 uM relative to control; format: functional
# Lytechinus variegatus [29] = experiment: Antimitotic activity in Lytechinus variegatus embryo assessed as inhibition of first cleavage at 417 uM relative to control; format: functional
# Lytechinus variegatus [30] = experiment: Antimitotic activity in Lytechinus variegatus embryo assessed as inhibition of third cleavage at 41.7 uM relative to control; format: functional
# Lytechinus variegatus [31] = experiment: Antimitotic activity in Lytechinus variegatus embryo assessed as inhibition of third cleavage at 417 uM relative to control; format: functional
# [32] = Antimitotic activity in Lytechinus variegatus embryo assessed as inhibition of blastula formation at 43.8 uM relative to control; format: functional
# Lytechinus variegatus [33] = experiment: Antimitotic activity in Lytechinus variegatus embryo assessed as inhibition of first cleavage at 43.8 uM relative to control; format: functional
# Lytechinus variegatus [34] = experiment: Antimitotic activity in Lytechinus variegatus embryo assessed as inhibition of third cleavage at 43.8 uM relative to control; format: functional
# [35] = Antimitotic activity in Lytechinus variegatus embryo assessed as inhibition of blastula formation at 39.4 uM relative to control; format: functional
# [36] = Antimitotic activity in Lytechinus variegatus embryo assessed as inhibition of blastula formation at 394 uM relative to control; format: functional
# Lytechinus variegatus [37] = experiment: Antimitotic activity in Lytechinus variegatus embryo assessed as inhibition of first cleavage at 39.4 uM relative to control; format: functional
# Lytechinus variegatus [38] = experiment: Antimitotic activity in Lytechinus variegatus embryo assessed as inhibition of first cleavage at 394 uM relative to control; format: functional
# Lytechinus variegatus [39] = experiment: Antimitotic activity in Lytechinus variegatus embryo assessed as inhibition of third cleavage at 39.4 uM relative to control; format: functional
# Lytechinus variegatus [40] = experiment: Antimitotic activity in Lytechinus variegatus embryo assessed as inhibition of third cleavage at 394 uM relative to control; format: functional
SMILES,IC50 (CCRF-CEM) [µg/mL],IC50 (K562) [µg/mL],IC50 (PC-3) [µg/mL],Activity [10],IC50 (B16) [µg/mL],IC50 (HCT-8) [µg/mL],IC50 (HL-60) [µg/mL],IC50 (MDA-MB-435) [µg/mL],inhibition at 41.7 µM [26] [%],inhibition at 417 µM [27] [%],inhibition (Lytechinus variegatus [28]) [%],inhibition (Lytechinus variegatus [29]) [%],inhibition (Lytechinus variegatus [30]) [%],inhibition (Lytechinus variegatus [31]) [%],also measured
COc1cccc2c1C(=O)c1c(O)c3c(c(O)c1C2=O)C[C@@](O)(C(=O)CO)C[C@@H]3O[C@H]1C[C@H](N)[C@H](O)[C@H](C)O1 [DOXORUBICIN],0.02,0.14,0.45,,,,,,,,,,,,inhibition at 18.4 µM [1]: 100%; inhibition at 184 µM [2]: 100%; inhibition (Lytechinus variegatus [3]): 100%; inhibition (Lytechinus variegatus [4]): 100%; inhibition (Lytechinus variegatus [5]): 100%; inhibition (Lytechinus variegatus [6]): 100%
COc1cc(/C=C(/C(=O)O)c2ccccc2)ccc1O,> 25,> 25,> 25,Non-toxic,> 25,> 25,> 25,17.8,,,,,,,inhibition (Lytechinus variegatus [7]): 7.3%; inhibition at 37 µM [8]: 5.3%; inhibition at 370 µM [9]: 99.7%; inhibition (Lytechinus variegatus [11]): 0%; inhibition (Lytechinus variegatus [12]): 0%; inhibition (Lytechinus variegatus [13]): 7.6%
COc1ccc(/C=C(/C(=O)O)c2ccccc2)cc1OC,> 25,> 25,> 25,Non-toxic,> 25,> 25,> 25,> 25,,,,,,,inhibition at 35.2 µM [14]: 0.7%; inhibition at 352 µM [15]: 0.7%; inhibition (Lytechinus variegatus [16]): 3%; inhibition (Lytechinus variegatus [17]): 4.3%; inhibition (Lytechinus variegatus [18]): 0%; inhibition (Lytechinus variegatus [19]): 0%
COc1cc(/C=C(/C(=O)O)c2ccccc2)ccc1OC(C)=O,> 25,> 25,> 25,Non-toxic,> 25,> 25,> 25,> 25,,,,,,,inhibition at 32 µM [20]: 5%; inhibition at 320 µM [21]: 100%; inhibition (Lytechinus variegatus [22]): 0%; inhibition (Lytechinus variegatus [23]): 100%; inhibition (Lytechinus variegatus [24]): 2.3%; inhibition (Lytechinus variegatus [25]): 100%
COc1ccc(/C=C/c2ccccc2)cc1OC,> 25,> 25,> 25,Non-toxic,> 25,> 25,> 25,> 25,83,100,0,0,6,100,
Oc1ccc(/C=C/c2cc(O)cc(O)c2)cc1 [RESVERATROL],5.91,9.62,3.51,Non-toxic,14.3,5.82,2.45,13.8,,,,,,,inhibition at 43.8 µM [32]: 100%; inhibition (Lytechinus variegatus [33]): 97.9%; inhibition (Lytechinus variegatus [34]): 100%
COc1ccc(/C=C\c2ccccc2)cc1OC,> 25,6.38,> 25,Non-toxic,> 25,> 25,6.42,6.08,100,100,0,100,100,100,
O=C(O)/C(=C/c1ccccc1O)c1ccccc1,> 25,> 25,> 25,Non-toxic,> 25,> 25,> 25,> 25,97.3,95.4,12.3,44.5,96.3,100,
COc1ccc(/C=C(/C(=O)O)c2ccccc2)cc1,> 25,> 25,> 25,Non-toxic,> 25,> 25,> 25,> 25,,,,,,,inhibition at 39.4 µM [35]: 0.3%; inhibition at 394 µM [36]: 68.7%; inhibition (Lytechinus variegatus [37]): 0%; inhibition (Lytechinus variegatus [38]): 0%; inhibition (Lytechinus variegatus [39]): 3.6%; inhibition (Lytechinus variegatus [40]): 9.3%
